Assay results taken from patent publication US20220389515A1, “USE OF BIOMARKERS TO PREDICT CLINICAL SENSITIVITY TO 2-(4-CHLOROPHENYL)-N-((2-(2,6-DIOXOPIPERIDIN-3-YL)-1-OXOISOINDOLIN-5-YL)METHYL)-2,2-DIFLUOROACETAMIDE” (priority 2019, published 2022).
“Also recorded” adds a separate entry of the source.

Columns and labels:
cereblon to IKZF1 = target: T1, cereblon to IKZF1 (Homo sapiens, UniProt Q96SW2); test: Cereblon binding assay with cell extracts (anti-HA immunoprecipitation), IKZF1; conditions: wild-type FLAG-HA-CRBN; compound added directly into the binding assay
T1 construct: expressed in transfected cells; host or cells: 293FT CRBN-/- cells (transient transfection; cell extracts, anti-HA immunoprecipitation)
Excerpt: FIG. 3A illustrates FLAG-HA tagged cereblon wild-type (FLAG-HA-CRBN) or Y384A/W386A mutant (FLAG-HA-YWAA) produced in 293FT CRBN−/− cells was used to capture V5 tagged GSPT1 (GSPT1-V5) and V5 tagged IKZF1 (IKZF1-V5) transiently expressed in 293FT CRBN−/− cells. […] FIG. 3B illustrates the surface representation of GSPT1 in complex with cereblon, DDB1 and Compound D, with DDB1 shown in purple, cereblon in blue, and GSPT1 in orange. The position of Compound D is shown with a white arrow. FIG. 3C illustrates the Fo-Fc omit electron density (green mesh) for Compound D (yellow sticks) contoured at 3.06. […] Hydrogen bond interactions between cereblon and the GPST1 β-hairpin are shown as yellow dashes. FIG. 3E illustrates details of the binding interface between cereblon and GSPT1. Compound D is represented as yellow sticks. Predicted polar interactions between Compound D and cereblon are shown as yellow dashes. FIG. 3F illustrates the immunoblot analysis of U937 parental cells or cells stably expressing HA-GSPT1-G575N. Cells were treated with DMSO or Compound D at the indicated concentrations. FIGS. 3G and 311 illustrate the immunoblot analysis (left panel) and cell proliferation (right panel) of MOLM-13 (FIG. 3G) and OCI-AML2 (FIG. 311) parental cells and cells stably expressing HA tagged GSPT1-G575N. Cells were treated with DMSO or Compound D at indicated concentrations.

[1] = test system: U937 Cas9 cell lines and OCI-AML2 Cas9 cell lines; test: Cell proliferation assay (CTG, 5 days) in sgRNA knockout Cas9 lines; format: cell-based, human
Protocol: Then, a cell proliferation assay was performed. Compound D dissolved in DMSO was injected into 96-well cell culture plates using a HP D300 digital dispenser in triplicate Compound D concentrations. One week after infection to knock-out the indicated genes, each of U937 Cas9 cell lines and OCI-AML2 Cas9 cell lines were plated in triplicate with 5000 cells in 100 μL complete culture media per well in the 96-well plates. After 5 days, cell proliferation was assessed using CTG (CellTiter-Glo) according to the manufacturer's instructions to assess the effects of Compound D on proliferation of each cell line.

U937 and OCI-AML2 cells = test: Flow cytometry-based CRISPR competition assay (RFP+/GFP+ ratio); format: cell-based, human
Protocol: To investigate the role of the mTOR signaling pathway in mediating Compound D sensitivity, a CRISPR competition assay was performed (see FIG. 6A). U937 cells stably expressing Cas9 were infected with a lentiviral vector expressing GFP and non-targeting sgRNA (sgNT), or lentiviral vectors expressing RFP and non-targeting sgRNA (sgNT), or lentiviral vectors expressing RFP and sgRNAs targeting MTOR, RICTOR or RAPTOR. Cells were then treated with DMSO or 100 nM Compound D. The RFP+/GFP+ ratio was monitored by flow cytometry every 2-3 days thereafter.
Next, CRISPR competition assays were conducted in U937 and OCI-AML2 cells as described above. Specifically, U937 cells stably expressing Cas9 were infected with lentiviral vector constitutively expressing GFP and non-targeting sgRNA (sgNT), or with lentiviral vectors constitutively expressing RFP and non-targeting sgRNA (sgNT) or sgRNAs targeting TSC1 or TSC2. Three days after infection, RFP and GFP cells were mixed at a 1:1 ratio and treated with DMSO, 1 μM Compound D, or 10 μM Compound D. The change of RFP+/GFP+ ratio was monitored by flow cytometry every 2-3 days thereafter. Similarly, OCI-AML2 cells stably expressing Cas9 were infected with lentiviral vector constitutively expressing GFP and non-targeting sgRNA (sgNT), or with lentiviral vectors constitutively expressing RFP and non-targeting sgRNA (sgNT) or sgRNAs targeting TSC1 or TSC2. Three days after infection, RFP and GFP cells were mixed at a 1:1 ratio and treated with DMSO, 0.1 μM Compound D, or […] Compound D. The change of RFP+/GFP+ ratio was monitored by flow cytometry every 2-3 days thereafter.
A CRISPR competition assay was performed as shown in the upper panel of FIG. 5A, and similarly to the assay described above. U937 cells stably expressing Cas9 were infected with a lentiviral vector constitutively expressing GFP and non-targeting sgRNA (sgNT), or with lentiviral vectors constitutively expressing RFP and non-targeting sgRNA (sgNT) or sgRNAs targeting GCN2. On day 2, RFP and GFP cells were mixed at a 1:1 ratio and treated with DMSO or 100 nM Compound D. The change of RFP+/GFP+ ratio was monitored by flow cytometry every 2-3 days thereafter.
Next, CRISPR competition assays were conducted in U937 and OCI-AML2 cells as described above. Specifically, U937 and OCI-AML2 cell lines were transduced with plenti-EF1á-Cas9-P2A-Blast, followed by Blasticidin selection to establish Cas9-expressing cell lines. U937-Cas9 and OCI-AML2-Cas9 cells were then transduced with pRSG17-U6-sgNT-1-UbiC-TagGFP2-2A-Puro, or pRSG16-U6-UbiC-TagRFP-2A-Puro vectors expressing sgNT-1, sgNC-1, sgNC-8 or gene-specific sgRNAs. Transduced cells were washed with 1×PBS 72 hours post-transduction. Cells were assessed for transduction via RFP or GFP fluorescence reporter expression. Once fluorescence reporter expression was confirmed, RFP- and GFP-transduced cells were mixed at a 1:1 ratio and seeded in 2 ml culture media per well in 12-well tissue culture plates at a cell density of 200,000 cells per mL, and treated with DMSO or an appropriate dose of Compound. Remaining cells underwent puromycin selection for 3-7 days and were harvested for immunoblot analysis to confirm gene knock-out. After seeding cells for culture in 12-well plates, 100 iL cell culture per well was removed for flow cytometric analysis as the baseline “Day 0” RFP- and GFP-positive percentages in each well. […]

T1 sequence (Q96SW2 whole entry): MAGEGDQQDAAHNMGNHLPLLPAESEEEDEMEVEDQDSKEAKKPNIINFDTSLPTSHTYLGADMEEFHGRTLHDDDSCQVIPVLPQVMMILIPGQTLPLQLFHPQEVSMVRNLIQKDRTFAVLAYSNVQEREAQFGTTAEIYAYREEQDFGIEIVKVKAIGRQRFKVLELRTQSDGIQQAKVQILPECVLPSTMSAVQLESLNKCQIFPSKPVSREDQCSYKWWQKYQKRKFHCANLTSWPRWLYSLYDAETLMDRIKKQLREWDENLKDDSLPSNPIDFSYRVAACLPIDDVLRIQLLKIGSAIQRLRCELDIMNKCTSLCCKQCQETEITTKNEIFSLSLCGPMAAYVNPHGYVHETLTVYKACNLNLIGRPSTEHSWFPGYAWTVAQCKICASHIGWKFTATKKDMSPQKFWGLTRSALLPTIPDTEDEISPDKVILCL

## O=C1CCC(N2Cc3cc(CNC(=O)C(F)(F)c4ccc(Cl)cc4)ccc3C2=O)C(=O)N1 (centres unmarked) [Compound D, 2-(4-chlorophenyl)-N-((2-(2,6-dioxopiperidin-3-yl)-1-oxoisoindolin-5-yl)methyl)-2,2-difluoroacetamide]
Cereblon to IKZF1
  binding of cereblon to IKZF1: not IKZF1
[1]; U937
  anti-proliferative effects after depletion of TSC1 and TSC2: diminished this effect
[1]; parental, sgNT-1 and sgNC-8 controls
  anti-proliferative effects in control cells: dose-dependent anti-proliferative effects
U937 and OCI-AML2 cells; U937 1 μM or 10 μM, OCI-AML2 0.1 μM or 1 μM
  response after TSC1 or TSC2 knockout: conferred a growth advantage in the presence of, but not in the absence of, Compound D; also recorded: increased resistance to Compound D
U937 and OCI-AML2 cells; U937 (10 μM) and OCI-AML2
  growth inhibition after loss of GCN1, GCN2, ATF4 or DDIT4: protected the cells against Compound D-induced growth inhibition
U937 and OCI-AML2 cells; U937, 100 nM
  response of cells lacking GCN2: resistant to Compound D
  sensitivity after knockout of mTOR, Raptor and Rictor: enhances U937 sensitivity to Compound D
U937 and OCI-AML2 cells; U937 and OCI-AML2
  response after ILF2 or ILF3 knockout: led to Compound D resistance
